Measured values taken from ChEMBL document CHEMBL4819120, “Identification of non-covalent 3C-like protease inhibitors against severe acute respiratory syndrome coronavirus-2 via virtual screening of a Korean compound library” (Bioorg Med Chem Lett, 2021).

What was measured:
[1] = Inhibition of SARS-CoV-2 3CL protease using DABCYL-KTSAVLQ-SGFRKME-EDANS fluorogenic peptide as substrate by fluorescence assay; parameters: species or system Severe acute respiratory syndrome coronavirus 2
SARS-CoV-2 = test: microbe, parasite or virus in culture; settings: Severe acute respiratory syndrome coronavirus 2, Vero C1008
Description: Antiviral activity against SARS-CoV-2 infected in monkey Vero E6 cells

Vero C1008 = test: Cytotoxicity against African green monkey Vero E6 cells; assay type: cell-based; settings: chlorocebus sabaeus

Structure (SMILES) | IC50 [1] [µM] | EC50 (SARS-CoV-2) [µM] | CC50 (Vero C1008) [µM]
Cc1ccc(Cn2c(=O)c3ccccc3n3c(=O)n(CC(=O)Nc4ccc(F)cc4F)nc23)cc1 | 9.5 | – | –
Cc1cc(C)cc(Nc2nc(C)cc3nn(CC(=O)Nc4cc(F)ccc4F)c(=O)n23)c1 | 8 | 141 | 469
O=C(Cn1c2ccccc2n2c(=O)cc(-c3ccc(Cl)cc3)nc12)Nc1ccc(F)cc1F | 5.7 | 39.9 | 454
CCc1ccc(NC(=O)Cn2nc3n(Cc4ccc(F)cc4)c(=O)c4ccccc4n3c2=O)cc1 | 12.1 | – | –
Cc1ccc(Cl)cc1NC(=O)Cn1nc2c(Oc3ccc(C(C)C)cc3)nccn2c1=O | 8.9 | – | –
Cc1cc(C)cc(Nc2nc(C)cc3nn(CC(=O)Nc4ccccc4F)c(=O)n23)c1 | 10.9 | – | –
Cc1cc2nn(CC(=O)Nc3ccccc3F)c(=O)n2c(Nc2ccccc2C)n1 | 8.7 | – | –
